US11512053B2, “Arginine methyltransferase inhibitors and uses thereof” (priority 2013, dated 2022)
Where a name gives a salt, the structure may show the parent alone. Read-outs that look alike come from different tables or passages of the source.

What was measured:
[1] = molecular target: full-length human PRMT6 (Flag- and His-tagged) (Homo sapiens, UniProt Q96LA8); test: PRMT6 Biochemical Assay (3H-SAM Flashplate, peptide substrate); settings: read-out: Biochemical IC50 PRMT6
Method in brief: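 Radiometric methyltransferase readout: tritium transfer onto a biotin-tagged histone H4 36-50 peptide bearing monomethyl K44 (75 nM), captured on streptavidin Flashplates after stopping with 400 uM unlabeled SAM. Enzyme is baculovirus-expressed Flag-PRMT6-His at 1 nM, given 30 min with compound at room temperature before adding 200 nM 3H-SAM and 250 nM cold SAM (pH 7.6 Bicine, 2% DMSO). Percent inhibition relative to max/min (1 mM SAH) controls, curve-fit to IC50.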

[2] = test system: mono-methyl arginine in RKO cells; test: RKO Methylation Assay, In Cell Western (ICW) for detection of mono-methyl arginine and DNA content; assay type: cell-based; settings: RKO cells; for EC30: read-out: In Cell Western EC30
Method in brief: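 RKO cells were treated with compound for 72 hours at 37 °C, methanol-fixed and stained overnight at 4 °C with anti-mono-methyl arginine (1:200), with DRAQ5 for DNA. Odyssey 800/700 nm intensity ratio was normalized to DMSO and 20 μM reference-compound controls. EC30 from triplicate nine-point curves.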

[3] = single experiment or average of multiple experiments
[4] = Homo sapiens, RKO, 72 h, 72 hours compound incubation, mono-methyl arginine signal normalised to DNA content (DRAQ5), percent activation vs 20 μM reference compound
[5] = Homo sapiens, RKO, 72 h, 72 hours incubation, mono-methyl arginine signal normalised to DNA content, single experiment or average of multiple experiments

Sequence of full-length human PRMT6 (Flag- and His-tagged) (Q96LA8 with tags, fused parts or gaps): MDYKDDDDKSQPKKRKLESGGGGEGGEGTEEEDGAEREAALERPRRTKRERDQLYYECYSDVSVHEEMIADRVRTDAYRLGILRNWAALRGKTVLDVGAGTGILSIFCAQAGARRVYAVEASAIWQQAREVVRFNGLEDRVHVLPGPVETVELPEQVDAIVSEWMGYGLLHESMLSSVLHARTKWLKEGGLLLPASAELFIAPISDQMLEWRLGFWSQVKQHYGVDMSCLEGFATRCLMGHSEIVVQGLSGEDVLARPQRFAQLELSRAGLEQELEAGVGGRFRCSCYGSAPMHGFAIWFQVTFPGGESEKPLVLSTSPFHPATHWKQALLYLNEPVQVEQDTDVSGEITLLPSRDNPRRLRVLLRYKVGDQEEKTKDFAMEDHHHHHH

Compound | IC50 [1] [nM] | IC50 [1, 3] [nM] | EC30 [2, 4] [µM] | EC30 [2, 5] [µM] | In Cell Western EC30 ([2]; 72 hours compound incubation, mono-methyl arginine signal normalised to DNA content (DRAQ5), percent activation vs 20 μM reference compound) | EC30 ([2]; 72 hours incubation, mono-methyl arginine signal normalised to DNA content, single experiment or average of multiple experiments) [µM]
CNCCN(C)Cc1c[nH]nc1C1CCC(=O)CC1 [Compound 194] | < 100 | 22.7 | < 3 | 1.18 | – | –
CNCCN(C)Cc1c[nH]nc1[C@H]1CC[C@@H](N(CCCOC)C(=O)CCC(C)C)CC1 [Compound 244] | < 100 | 54.8 | < 3 | 2.53 | – | –
CCC(=O)N(CCOc1ccccc1)[C@H]1CC[C@H](c2n[nH]cc2CN(C)CCNC)CC1 [Compound 221] | < 100 | 19.2 | < 3 | 0.49 | – | –
CNCCN(C)Cc1c[nH]nc1C1CCC(=O)N(CCCOC)C1 (stereo not shown) [Compound 190] | 101 to 1000 | 156 | 3.01 to 12 | 6.62 | – | –
CNCCN(C)Cc1c[nH]nc1[C@H]1CC[C@H](N(CCOc2ccccc2)C(=O)CC(C)C)CC1 [Compound 223] | < 100 | 15.8 | < 3 | 0.275 | – | –
CNCCN(C)Cc1c[nH]nc1[C@H]1CC[C@H](N(CC(C)C)C(=O)CCCOC)CC1 [Compound 249] | < 100 | 82.8 | – | – | A (“A” indicates an EC30 ≤ 3.00 μM) | 0.6585
CNCCN(C)Cc1c[nH]nc1[C@H]1CC[C@H](C(=O)NCCOc2ccccc2)CC1 [Compound 211] | < 100 | 11.4 | < 3 | 0.155 | – | –
CNCCN(C)Cc1c[nH]nc1[C@H]1CC[C@]2(CCOC2(C)C)CC1 [Compound 253] | < 100 | 13.4 | < 3 | 0.0566 | – | –
CNCCN(C)Cc1c[nH]nc1[C@H]1CC[C@]2(CCCO2)OC1 [Compound 198] | 3010 to 10000 | 8540 | < 3 | 0.406 | – | –
CNCCN(C)Cc1c[nH]nc1[C@H]1CC[C@H](N(CCC(C)C)C(=O)CCOC)CC1 [Compound 236] | < 100 | 62.4 | < 3 | 0.813 | – | –
CNCCN(C)Cc1c[nH]nc1[C@H]1CC[C@@H](N(CC(C)C)C(=O)CCOC)CC1 [Compound 233] | < 100 | 47.9 | < 3 | 1.06 | – | –
CNCCN(C)Cc1c[nH]nc1[C@H]1CC[C@H](N(CC(C)C)C(=O)CCOC)CC1 [Compound 234] | < 100 | 84.1 | < 3 | 1.06 | – | –
CNCCN(C)Cc1c[nH]nc1[C@H]1CC[C@H](N(CCCOC)C(=O)CCOc2ccccc2)CC1 [Compound 247] | < 100 | 20.2 | < 3 | 0.698 | – | –
CN(CCN)Cc1c[nH]nc1[C@H]1CC[C@@]2(CC1)CC(C)(C)CO2 [Compound 207] | < 100 | – | < 3 | 0.0121 | – | –
CNCCN(C)Cc1c[nH]nc1[C@H]1CC[C@H](C(=O)N(C)CC(C)C)CC1 [Compound 226] | < 100 | 41.5 | < 3 | 1.53 | – | –
CNCCN(C)Cc1n[nH]cc1[C@H]1CC[C@]2(CC1)CC(C)(C)CO2 [Compound 201] | 101 to 1000 | – | < 3 | 0.155 | – | –
CNCCN(C)Cc1c[nH]nc1[C@H]1CC[C@H](N(CCOc2ccccc2)C(=O)CCOC)CC1 [Compound 219] | < 100 | 31.9 | < 3 | 0.294 | – | –
CN(CCN)Cc1c[nH]nc1[C@H]1CC[C@]2(CC1)CC(C)(C)CO2 [Compound 208] | < 100 | 45.3 | < 3 | 0.0672 | – | –
CNCCN(C)Cc1c[nH]nc1[C@H]1CC[C@@H](C(=O)N(C)CC(C)C)CC1 [Compound 215] | < 100 | 30.6 | < 3 | 0.164 | – | –
CNCCN(C)Cc1c[nH]nc1[C@H]1CC[C@H](N(CC(C)C)C(=O)CCCOC)CC1 [Compound 248] | < 100 | 32.6 | < 3 | 1.31 | – | –
CNCCN(C)Cc1n[nH]cc1[C@H]1CC[C@H](C(=O)NCCC(C)C)CC1 [Compound 203] | < 100 | 36.8 | < 3 | 0.327 | – | –
CCN(C(=O)CC1CCOCC1)[C@H]1CC[C@H](c2n[nH]cc2CN(C)CCNC)CC1 [Compound 195] | < 100 | 51.7 | 3.01 to 12 | 4.89 | – | –

Compound | IC50 [1] [nM] | IC50 [1, 3] [nM] | EC30 [2, 4] [µM] | EC30 [2, 5] [µM] | In Cell Western EC30 ([2]; 72 hours compound incubation, mono-methyl arginine signal normalised to DNA content (DRAQ5), percent activation vs 20 μM reference compound) | EC30 ([2]; 72 hours incubation, mono-methyl arginine signal normalised to DNA content, single experiment or average of multiple experiments) [µM]
CCN(C(=O)CCOc1ccccc1)[C@H]1CC[C@H](c2n[nH]cc2CN(C)CCNC)CC1 [Compound 225] | < 100 | 11.6 | < 3 | 0.649 | – | –
CNCCN(C)Cc1c[nH]nc1[C@H]1CC[C@@H](N(CCCOC)C(=O)CC(C)C)CC1 [Compound 242] | < 100 | 41.7 | – | – | – | –
CCN(C(=O)CCC(C)C)[C@H]1CC[C@H](c2n[nH]cc2CN(C)CCNC)CC1 [Compound 250] | < 100 | 14.3 | – | – | – | –
CCOCC1CC(c2n[nH]cc2CN(C)CCNC)CCC1(C)C (stereo not shown) [Compound 202] | < 100 | 66.4 | < 3 | 0.327 | – | –
CNCCN(C)Cc1c[nH]nc1[C@H]1CC[C@H](N(CCCOC)C(=O)CCC(C)C)CC1 [Compound 243] | < 100 | 15.1 | – | – | – | –
CNCCN(C)Cc1n[nH]cc1[C@H]1CC[C@@]2(CC1)CC(C)(C)CO2 [Compound 200, Methyl[2-(methylamino)ethyl]([4-[(5S,8S)-3,3-dimethyl-1-oxaspiro[4.5]decan-8-yl]-1H-pyrazol-3-yl]methyl)amine trifluoroacetic acid salt] | < 100 | – | < 3 | 0.0203 | – | –
CNCCN(C)Cc1c[nH]nc1[C@H]1CC[C@H](N(CCCOC)C(=O)CC(C)C)CC1 [Compound 241] | < 100 | 32.8 | < 3 | 1.18 | – | –
CNCCN(C)Cc1c[nH]nc1C1CCC(=O)N(Cc2ccc(C(F)(F)F)cc2)C1 (stereo not shown) [Compound 191] | 101 to 1000 | 107 | 3.01 to 12 | 9.25 | – | –
CNCCN(C)Cc1c[nH]nc1[C@H]1CC[C@@H](C(=O)NCCC(C)C)CC1 [Compound 204] | < 100 | 63.6 | < 3 | 1.55 | – | –
CNCCN(C)Cc1cn(C)nc1[C@H]1CC[C@@]2(CC1)CC(C)(C)CO2 [Compound 205, Methyl([1-methyl-3-[(5S,8S)-3,3-dimethyl-1-oxaspiro[4.5]decan-8-yl]-1H-pyrazol-4-yl]methyl)[2-(methylamino)ethyl]amine hydrochloride] | < 100 | 71.5 | < 3 | 0.0144 | – | –
CNCCN(C)Cc1c[nH]nc1[C@H]1CC[C@@H](C(=O)NCCOc2ccccc2)CC1 [Compound 212] | < 100 | 13.6 | < 3 | 0.433 | – | –
CNCCN(C)Cc1c[nH]nc1[C@H]1CC[C@@]2(CCC(C)(C)O2)CC1 [Compound 260] | < 100 | 83.1 | < 3 | 0.207 | – | –
CNCCN(C)Cc1c[nH]nc1C1CCC(C)(C)[C@H](C(=O)NCCCOC)C1 (stereo partly shown) [Compound 265] | 101 to 1000 | 174 | – | – | – | –
CCOC[C@H]1CC(c2n[nH]cc2CN(C)CCNC)C[C@H](COCC)C1 (stereo partly shown) [Compound 188] | 1010 to 3000 | 1230 | – | – | – | –
CNCCN(C)Cc1cnn(C)c1[C@H]1CC[C@@]2(CC1)CC(C)(C)CO2 [Compound 245, Methyl ([2-[methyl([1-methyl-5-[(5S,8S)-3,3-dimethyl-1-oxaspiro[4.5]decan-8-yl]-1H-pyrazol-4-yl]methyl)amino]ethyl])amine trifluoroacetic acid salt] | < 100 | 62.2 | – | – | – | –
CNCCN(C)Cc1c[nH]nc1[C@H]1CC[C@@H](N(CCOc2ccccc2)C(=O)CCOC)CC1 [Compound 218] | < 100 | 30.3 | – | – | – | –
CNCCN(C)Cc1c[nH]nc1[C@H]1CC[C@@H](N(CCOc2ccccc2)C(=O)CCCOC)CC1 [Compound 228] | < 100 | 18.5 | – | – | – | –
CNCCN(C)Cc1c[nH]nc1C1CCC(C)(C)[C@@H](C(=O)NCCC(C)C)C1 (stereo partly drawn) [Compound 263, (1S)-2,2-dimethyl-5-[4-({methyl[2-(methylamino)ethyl]amino}methyl)-1H-pyrazol-3-yl]-N-(3-methylbutyl)cyclohexane-1-carboxamide] | < 100 | 63.8 | – | – | – | –
CNCCN(C)Cc1c[nH]nc1C1CCC(C)(C)[C@@H](C(=O)NCC(C)C)C1 (stereo partly shown) [Compound 266] | < 100 | 79 | – | – | – | –
CNCCN(C)Cc1c[nH]nc1C1CCC(C)(C)[C@H](C(=O)NCCOC)C1 (stereo partly shown) [Compound 264] | 101 to 1000 | 133 | – | – | – | –
CNCCN(C)Cc1c[nH]nc1C1C[C@H](C(=O)N(C)CC(C)C)C(C)(C)[C@H](C(=O)N(C)CC(C)C)C1 (stereo partly shown) [Compound 267] | 3010 to 10000 | ≥ 10000 | – | – | – | –
